Measured values reported in PubChem BioAssay (NCI).
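In this assay, cells in 96-well plates receive the compound at five concentrations for 48 hours. Endpoints are linearly interpolated between the surrounding concentrations. Here, GI50 denotes the concentration required for 50% inhibition of growth. TGI denotes the concentration required for complete inhibition of growth.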

Key:
Test in all cases: DTP human tumour cell line panel, 48 h
SF-268 CNS = system: SF-268 CNS
OVCAR-8 ovarian = system: OVCAR-8 ovarian
BT-549 breast = system: BT-549 breast
UO-31 renal = system: UO-31 renal
ACHN renal = system: ACHN renal
RPMI-8226 leukemia = system: RPMI-8226 leukemia
DU-145 prostate = system: DU-145 prostate
OVCAR-3 ovarian = system: OVCAR-3 ovarian
NCI/ADR-RES ovarian = system: NCI/ADR-RES ovarian
M14 melanoma = system: M14 melanoma
RXF 393 renal = system: RXF 393 renal
NCI-H23 lung = system: NCI-H23 lung
SK-OV-3 ovarian = system: SK-OV-3 ovarian
HT29 colon = system: HT29 colon
UACC-257 melanoma = system: UACC-257 melanoma
HCT-116 colon = system: HCT-116 colon
SF-539 CNS = system: SF-539 CNS
SF-295 CNS = system: SF-295 CNS
A549 NSCLC = system: A549 NSCLC
SK-MEL-5 melanoma = system: SK-MEL-5 melanoma
SNB-75 CNS = system: SNB-75 CNS
K-562 leukemia = system: K-562 leukemia
SK-MEL-2 melanoma = system: SK-MEL-2 melanoma
HCC-2998 colon = system: HCC-2998 colon
SW-620 colon = system: SW-620 colon
PC-3 prostate = system: PC-3 prostate
786-0 renal = system: 786-0 renal
HOP-92 NSCLC = system: HOP-92 NSCLC
HL-60(TB) leukemia = system: HL-60(TB) leukemia
CCRF-CEM leukemia = system: CCRF-CEM leukemia
CAKI-1 renal = system: CAKI-1 renal
TK-10 renal = system: TK-10 renal
MDA-MB-435 = system: MDA-MB-435
HOP-62 NSCLC = system: HOP-62 NSCLC
LOX IMVI melanoma = system: LOX IMVI melanoma
MALME-3M melanoma = system: MALME-3M melanoma
IGROV1 ovarian = system: IGROV1 ovarian
SN12C renal = system: SN12C renal
NCI-H460 lung = system: NCI-H460 lung
NCI-H226 lung = system: NCI-H226 lung
HS 578T breast = system: HS 578T breast
OVCAR-5 ovarian = system: OVCAR-5 ovarian
A498 renal = system: A498 renal
KM12 colon = system: KM12 colon
SNB-19 CNS = system: SNB-19 CNS
HCT-15 colon = system: HCT-15 colon
UACC-62 melanoma = system: UACC-62 melanoma
MDA-MB-231 breast = system: MDA-MB-231 breast
SK-MEL-28 melanoma = system: SK-MEL-28 melanoma
U251 CNS = system: U251 CNS
T-47D breast = system: T-47D breast
MOLT-4 leukemia = system: MOLT-4 leukemia
OVCAR-4 ovarian = system: OVCAR-4 ovarian
COLO 205 colon = system: COLO 205 colon
NCI-H522 lung = system: NCI-H522 lung

Q: What does the source list for `O=C(C(Br)C(Br)c1ccccc1)C(Br)C(Br)c1ccccc1` (stereo not given)?
A: GI50 (SF-268 CNS): 2.26 µM; TGI (SF-268 CNS): 5.62 µM; GI50 (OVCAR-8 ovarian): 0.665 µM; TGI (OVCAR-8 ovarian): 2.22 µM; GI50 (BT-549 breast): 1.86 µM; TGI (BT-549 breast): 3.39 µM; GI50 (UO-31 renal): 0.236 µM; TGI (UO-31 renal): 0.846 µM; GI50 (ACHN renal): 0.253 µM; TGI (ACHN renal): 0.63 µM; GI50 (RPMI-8226 leukemia): 0.325 µM; TGI (RPMI-8226 leukemia): 1.33 µM; GI50 (DU-145 prostate): 1.46 µM; TGI (DU-145 prostate): 2.91 µM; GI50 (OVCAR-3 ovarian): 0.511 µM; TGI (OVCAR-3 ovarian): 1.67 µM; GI50 (NCI/ADR-RES ovarian): 2.95 µM; TGI (NCI/ADR-RES ovarian): 13.3 µM; GI50 (M14 melanoma): 1.95 µM; TGI (M14 melanoma): 4.41 µM; GI50 (RXF 393 renal): 0.527 µM; TGI (RXF 393 renal): 1.77 µM; GI50 (NCI-H23 lung): 2.02 µM; TGI (NCI-H23 lung): 4.83 µM; GI50 (SK-OV-3 ovarian): 4.67 µM; TGI (SK-OV-3 ovarian): 19.3 µM; GI50 (HT29 colon): 0.346 µM; TGI (HT29 colon): 1.2 µM; GI50 (UACC-257 melanoma): 1.37 µM; TGI (UACC-257 melanoma): 2.92 µM; GI50 (HCT-116 colon): 0.198 µM; TGI (HCT-116 colon): 0.4 µM; GI50 (SF-539 CNS): 1.66 µM; TGI (SF-539 CNS): 3.19 µM; GI50 (SF-295 CNS): 4.6 µM; TGI (SF-295 CNS): 13.6 µM; GI50 (A549 NSCLC): 2.88 µM; TGI (A549 NSCLC): 10.1 µM; GI50 (SK-MEL-5 melanoma): 1.69 µM; TGI (SK-MEL-5 melanoma): 3.51 µM; GI50 (SNB-75 CNS): 1.77 µM; TGI (SNB-75 CNS): 6.14 µM; GI50 (K-562 leukemia): 0.302 µM; TGI (K-562 leukemia): 1.38 µM; GI50 (SK-MEL-2 melanoma): 1.87 µM; TGI (SK-MEL-2 melanoma): 3.78 µM; GI50 (HCC-2998 colon): 1.91 µM; TGI (HCC-2998 colon): 3.52 µM; GI50 (SW-620 colon): 0.321 µM; TGI (SW-620 colon): 1.09 µM; GI50 (PC-3 prostate): 2.03 µM; TGI (PC-3 prostate): 5.4 µM; GI50 (786-0 renal): 0.828 µM; TGI (786-0 renal): 2.21 µM; GI50 (HOP-92 NSCLC): 1.46 µM; TGI (HOP-92 NSCLC): 3.01 µM; GI50 (HL-60(TB) leukemia): 0.694 µM; TGI (HL-60(TB) leukemia): 2.75 µM; GI50 (CCRF-CEM leukemia): 0.236 µM; TGI (CCRF-CEM leukemia): 0.886 µM; GI50 (CAKI-1 renal): 0.389 µM; TGI (CAKI-1 renal): 1.37 µM; GI50 (TK-10 renal): 0.311 µM; TGI (TK-10 renal): 1.44 µM; GI50 (MDA-MB-435): 1.14 µM; TGI (MDA-MB-435): 3.07 µM; GI50 (HOP-62 NSCLC): 3.08 µM; TGI (HOP-62 NSCLC): 8.89 µM; GI50 (LOX IMVI melanoma): 0.633 µM; TGI (LOX IMVI melanoma): 1.88 µM; GI50 (MALME-3M melanoma): 1.4 µM; TGI (MALME-3M melanoma): 3.4 µM; GI50 (IGROV1 ovarian): 1.61 µM; TGI (IGROV1 ovarian): 3.41 µM; GI50 (SN12C renal): 1.78 µM; TGI (SN12C renal): 3.83 µM; GI50 (NCI-H460 lung): 2.27 µM; TGI (NCI-H460 lung): 5.3 µM; GI50 (NCI-H226 lung): 1.74 µM; TGI (NCI-H226 lung): 3.71 µM; GI50 (HS 578T breast): 2.58 µM; TGI (HS 578T breast): 8.4 µM; GI50 (OVCAR-5 ovarian): 1.57 µM; TGI (OVCAR-5 ovarian): 2.95 µM; GI50 (A498 renal): 1.72 µM; TGI (A498 renal): 4.12 µM; GI50 (KM12 colon): 2.1 µM; TGI (KM12 colon): 4.27 µM; GI50 (SNB-19 CNS): 3.49 µM; TGI (SNB-19 CNS): 14.9 µM; GI50 (HCT-15 colon): 0.277 µM; TGI (HCT-15 colon): 0.849 µM; GI50 (UACC-62 melanoma): 1.32 µM; TGI (UACC-62 melanoma): 2.69 µM; GI50 (MDA-MB-231 breast): 1.31 µM; TGI (MDA-MB-231 breast): 2.83 µM; GI50 (SK-MEL-28 melanoma): 1.62 µM; TGI (SK-MEL-28 melanoma): 3.36 µM; GI50 (U251 CNS): 1.89 µM; TGI (U251 CNS): 4.53 µM; GI50 (T-47D breast): 0.279 µM; TGI (T-47D breast): 1.42 µM; GI50 (MOLT-4 leukemia): 0.348 µM; TGI (MOLT-4 leukemia): 1.41 µM; GI50 (OVCAR-4 ovarian): 1.14 µM; TGI (OVCAR-4 ovarian): 2.52 µM; GI50 (COLO 205 colon): 1.07 µM; TGI (COLO 205 colon): 2.8 µM; GI50 (NCI-H522 lung): 0.233 µM; TGI (NCI-H522 lung): 0.61 µM
